In brackets after ≈: the same amount, converted by molar mass. Where two headings read alike, the source gives them in different places.
Columns and labels:
Type in all cases: cell-based
[1] = tested on: Klebsiella pneumonia #3010
Procedure: (§1) The deca sulfomethylated polymyxins were tested for antibacterial activity by determining the minimal inhibitory concentration (MIC) by use of the broth dilution method according to EUCAST. […] indicator organism were used e.g. Acinetobacter baumannii colistin-sensitive, Klebsiella pneumonia #3010, Pseudomonas aeruginosa ATCC27853, Escherichia coli ATCC25922 and Escherichia coli DSA443. The tests were performed at, Statens Serum Institut, Copenhagen, Denmark department for Microbiology and Infection Control.
(§2) The concentration range used was 0.125-128 μg/mL. Gentamicin was included as a positive quality control. Preparation of Gentamicin: 1000 μg/mL stock solution: 0.125 ml of a 40 mg/mL solution of Hexamicin+4.875 mL sterile water. 128 μg/mL: 0.640 mL of “1000 μg/mL stock solution”+4.36 mL Müeller-Hinton broth (MHB).
(§3) Preparation of compounds disclosed herein: 5 mg/ml stock solution: one vial of 5 mg was added 1.0 mL sterile water. 512 μg/mL solution: 0.205 mL of “5 mg/mL stock solution”+1.795 mL MHB
(§4) Preparation of inoculum: Fresh overnight colonies from 5% horse blood agar plates were suspended to a turbidity of 0.5 McFarland and further diluted in Müeller-Hinton broth to 1×10^6 CFU/ml. A total of 50 μL diluted bacterial suspension (Müeller Hinton BBL II-broth, SSI) was added to wells containing 50 μL of two fold compounds described herein or gentamicin dilutions. All compounds were tested in triplicate. The plates were incubated at 35° C., 16-20 h.

[2] = tested on: Pseudomonas aeruginosa ATCC27853
Procedure: as §1, §2, §3, §4

[3] = tested on: Escherichia coli ATCC25922
Procedure: as §1, §2, §3, §4

[4] = tested on: Acinetobacter baumannii colistin-sensitive
Procedure: as §1, §2, §3, §4

[5] = tested on: Escherichia coli DSA443; assay: MIC by broth dilution method according to EUCAST; conditions: Table 3, 35° C., 16-20 h
Procedure: as §1, §2, §3
as §4, with “All compounds were tested in triplicate. The plates were incubated at 35° C., 16-20 h.” left out

[6] = Table 3, broth dilution, 35° C., 16-20 h

## CC[C@H](C)CCCCC(=O)N[C@@H](CCN(CS(=O)(=O)O)CS(=O)(=O)O)C(=O)N[C@H](C(=O)N[C@@H](CCN(CS(=O)(=O)O)CS(=O)(=O)O)C(=O)N[C@H]1CCNC(=O)[C@H]([C@@H](C)O)NC(=O)[C@H](CCN(CS(=O)(=O)O)CS(=O)(=O)O)NC(=O)[C@H](CCN(CS(=O)(=O)O)CS(=O)(=O)O)NC(=O)[C@H](CC(C)C)NC(=O)[C@@H](CC(C)C)NC(=O)[C@H](CCN(CS(=O)(=O)O)CS(=O)(=O)O)NC1=O)[C@@H](C)O [Example 1, Penta (Nγ-Bis-Sulfomethyl) DAB1,3,5,8,9 Polymyxin E1]
[1]
  MIC K. pneumonia #3010: 16 µg/mL (≈ 7.58 µM)
[2]; ATCC27853
  MIC P. aeruginosa ATCC 27853: 8 µg/mL (≈ 3.79 µM)
[3]; ATCC25922
  MIC E. coli ATCC 25922: 8 µg/mL (≈ 3.79 µM)
[4]; colistin-sensitive
  MIC A. baumannii ColistinS: 4 µg/mL (≈ 1.9 µM)

## CC(C)CCCCC(=O)N[C@@H](CCN(CS(=O)(=O)O)CS(=O)(=O)O)C(=O)N[C@H](C(=O)N[C@@H](CCN(CS(=O)(=O)O)CS(=O)(=O)O)C(=O)N[C@H]1CCNC(=O)[C@H]([C@@H](C)O)NC(=O)[C@H](CCN(CS(=O)(=O)O)CS(=O)(=O)O)NC(=O)[C@H](CCN(CS(=O)(=O)O)CS(=O)(=O)O)NC(=O)[C@H](CC(C)C)NC(=O)[C@@H](CC(C)C)NC(=O)[C@H](CCN(CS(=O)(=O)O)CS(=O)(=O)O)NC1=O)[C@@H](C)O [Example 2, Penta (Nγ-Bis-Sulfomethyl) DAB1,3,5,8,9 Polymyxin E2]
[1]
  MIC K. pneumonia #3010: 16 µg/mL (≈ 7.63 µM)
[2]; ATCC27853
  MIC P. aeruginosa ATCC 27853: 8 µg/mL (≈ 3.82 µM)
[3]; ATCC25922
  MIC E. coli ATCC 25922: 8 µg/mL (≈ 3.82 µM)
[4]; colistin-sensitive
  MIC A. baumannii ColistinS: 4 µg/mL (≈ 1.91 µM)

## CC[C@H](C)CCCCC(=O)N[C@@H](CCN(CS(=O)(=O)O)CS(=O)(=O)O)C(=O)N[C@H](C(=O)N[C@@H](CCN(CS(=O)(=O)O)CS(=O)(=O)O)C(=O)N[C@H]1CCNC(=O)[C@H]([C@@H](C)O)NC(=O)[C@H](CCN(CS(=O)(=O)O)CS(=O)(=O)O)NC(=O)[C@H](CCN(CS(=O)(=O)O)CS(=O)(=O)O)NC(=O)[C@H]([C@@H](C)CC)NC(=O)[C@@H](CC(C)C)NC(=O)[C@H](CCN(CS(=O)(=O)O)CS(=O)(=O)O)NC1=O)[C@@H](C)O [Example 3, Penta (Nγ-Bis-Sulfomethyl) DAB1,3,5,8,9 Polymyxin E1-i]
[1]
  MIC K. pneumonia #3010: 16 µg/mL (≈ 7.58 µM)
[2]; ATCC27853
  MIC P. aeruginosa ATCC 27853: 8 µg/mL (≈ 3.79 µM)
[3]; ATCC25922
  MIC E. coli ATCC 25922: 8 µg/mL (≈ 3.79 µM)
[4]; colistin-sensitive
  MIC A. baumannii ColistinS: 4 µg/mL (≈ 1.9 µM)

## CC[C@H](C)CCCCC(=O)N[C@@H](CCN(CS(=O)(=O)O)CS(=O)(=O)O)C(=O)N[C@H](C(=O)N[C@@H](CCN)C(=O)N[C@H]1CCNC(=O)[C@H]([C@@H](C)O)NC(=O)[C@H](CCN(CS(=O)(=O)O)CS(=O)(=O)O)NC(=O)[C@H](CCN)NC(=O)[C@H](CC(C)C)NC(=O)[C@@H](CC(C)C)NC(=O)[C@H](CCN(CS(=O)(=O)O)CS(=O)(=O)O)NC1=O)[C@@H](C)O [PE1-(SM)6^1,5, 9, Tri (Nγ-Bis-Sulfomethyl) DAB1,5,9 Polymyxin E1]
[2]; ATCC27853
  MIC P. aeruginosa ATCC 27853: 8 µg/mL (≈ 4.61 µM)
[3]; ATCC25922
  MIC E. coli ATCC 25922: 8 µg/mL (≈ 4.61 µM)

## CC[C@H](C)CCCCC(=O)N[C@@H](CCN(CS(=O)(=O)O)CS(=O)(=O)O)C(=O)N[C@H](C(=O)N[C@@H](CCN)C(=O)N[C@H]1CCNC(=O)[C@H]([C@@H](C)O)NC(=O)[C@H](CCN(CS(=O)(=O)O)CS(=O)(=O)O)NC(=O)[C@H](CCN(CS(=O)(=O)O)CS(=O)(=O)O)NC(=O)[C@H](CC(C)C)NC(=O)[C@@H](CC(C)C)NC(=O)[C@H](CCN(CS(=O)(=O)O)CS(=O)(=O)O)NC1=O)[C@@H](C)O [PE1-(SM)8^1,5,8, 9, Tetra (Nγ-Bis-Sulfomethyl) DAB1,5,8,9 Polymyxin E1]
[2]; ATCC27853
  MIC P. aeruginosa ATCC 27853: 8 µg/mL (≈ 4.16 µM)
[3]; ATCC25922
  MIC E. coli ATCC 25922: 8 µg/mL (≈ 4.16 µM)

## Gentamicin [reference compound]
[5]
  MIC E. coli DSA 443: >32 µg/mL
[1]; [6]
  MIC K. pneumonia #3010: 0.125 µg/mL
[2]; [6]
  MIC P. aeruginosa ATCC 27853: 1 µg/mL
[2]; limit 0.5-2 μg/mL for P. aeruginosa ATCC27853
  MIC of positive control against quality control limit: within the limit
[3]; [6]
  MIC E. coli ATCC 25922: 1 µg/mL
[3]; limit 0.25-1 μg/mL for E. coli ATCC 25922
  MIC of positive control against quality control limit: within the limit
[4]; [6]
  MIC A. baumannii ColistinS: >32 µg/mL

— US10640536B2, “Polymyxins, compositions, methods of making and methods of use” (XELLIA PHARMACEUTICALS APS, priority 2013, dated 2020)
